Numbered stars: 1 amine (or outer) side, 2 acyl side, 3 side chain; on linkers, the order of the positions; unused ones are H or OH. Bridge positions count the residues as written; N and C are the ends. Square brackets hold non-standard residues; d marks the D form. Peptide text beside a SMILES is read from it. X1 = C#CCCC[C@H](O[*:2])C(C)(C)C(=O)[*:1]; Hmp(2R,3S) = CC[C@H](C)[C@@H](O)C(=O)O; NMeV = CN[C@H](C(=O)O)C(C)C
Columns and labels:
[1] = Cytotoxicity against human H460 cells by SRB assay; format: functional, cell-based; settings: NCI-H460
[2] = Stability of the compound in DMSO by HPLC analysis; format: physicochemical
[3] = Cytotoxicity against human KB/VCR cells by SRB assay; format: functional, cell-based
KB = assay: Cytotoxicity against human KB cells by SRB assay; format: functional, cell-based
A549 = assay: Cytotoxicity against human A549 cells by SRB assay; format: functional, cell-based

C#CCCC[C@@H]1OC(=O)[C@H]([C@@H](C)O)NC(=O)[C@H](C(C)C)N(C)C(=O)[C@@H]2CCCN2C(=O)[C@@H]([C@@H](C)CC)OC(=O)[C@H](C(C)C)N(C)C(=O)[C@H](C(C)C)NC(=O)C1(C)C [VIEQUEAMIDE A] (V[NMeV][Hmp(2R,3S)]P[NMeV]T; linker N-C via X1)
IC50 [1]: < 100 µM
Stability [2]: Unstable
IC50 [3]: < 100 µM
IC50 (KB): < 100 µM
IC50 (A549): < 100 µM

Reference: ChEMBL document CHEMBL2375354, “Total synthesis of the marine cyclic depsipeptide viequeamide a” (J Nat Prod, 2013)
